Results reported in patent US12544463B2, “Deuterium substituted positron emission tomography (PET) imaging agents and their pharmacological application” (Five Eleven Pharma Inc., priority 2017, dated 2026).
Read-outs that look alike come from different tables or passages of the source. Values belong to the molecule of their own block, whether it stands above or below them.

Legend:
[1] = cited from earlier work; for Biodistribution Blood / Biodistribution Bone / Biodistribution Brain / Biodistribution Liver / Biodistribution Muscle: normal male mice, Choi, 2009
[2] = humans, cited from earlier work
[3] = cited from earlier work
[4] = biological target: T1, Aβ plaques in AD brain tissue homogenates (Homo sapiens, UniProt P05067); conditions: cited from earlier work; for Ki: read-out: inhibition constant Ki
T1 construct: host or cells: AD brain tissue homogenate
T1 sequence (P05067 672-713 limits assumed): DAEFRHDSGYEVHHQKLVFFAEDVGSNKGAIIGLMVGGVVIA

[5] = biological target: T2, Aβ aggregates of human AD brain homogenates (Homo sapiens, UniProt P05067); test: In vitro binding assay for Aβ aggregates of human AD brain homogenates; conditions: for Ki: Avg ± SD, n = 3, read-out: Ki of cold competing drug; for Kd: value used in Cheng-Prusoff equation
T2 construct: from tissue; host or cells: human Alzheimer's disease brain homogenate
T2 sequence (P05067 672-713 limits assumed): as above
Experimental: Competitive binding assays were performed in 12×75 mm borosilicate glass tubes. The reaction mixture contained 100 μL of AD brain homogenates (20-25 μg), 100 μL of [^18F]AV-45 or [^18F]AV-45-D3 (˜150,000 cpm), and 100 μL of competing compounds (10^−5 to 10^−10 M diluted serially in PBS containing 0.1% bovine serum albumin) in a final volume of […]. Nonspecific binding was defined in the presence of 1 μM of IMPY (6-iodo-2-(4′-dimethylamino-)phenyl-imidazo[1,2-a]pyridine) in the same assay tubes. The mixture was incubated for 60 min at room temperature, and the bound and the free radioactivity were separated by vacuum filtration through Whatman GF/B filters using a Brandel M-24R cell harvester, followed by washing with PBS buffer three times. The radioactivity on the filters was counted with a gamma counter (Wizard^2, Perkin-Elmer). Data were analyzed using the nonlinear least-square curve fitting program LIGAND to determine IC50.

[6] = biological target: T3, vesicular monoamine transporter 2 (VMAT2) (Rattus norvegicus, UniProt Q01827); test: In vitro binding assay for Ki determination, rat striatum homogenates; conditions: for Ki: Avg ± SD, n = 3, read-out: Ki of cold competing drug; for Kd: value used in Cheng-Prusoff equation
T3 construct: Tissue homogenates of striatum (dissected from rat brain) were prepared; from tissue; host or cells: rat brain striatum homogenate
T3 sequence (Q01827 whole entry): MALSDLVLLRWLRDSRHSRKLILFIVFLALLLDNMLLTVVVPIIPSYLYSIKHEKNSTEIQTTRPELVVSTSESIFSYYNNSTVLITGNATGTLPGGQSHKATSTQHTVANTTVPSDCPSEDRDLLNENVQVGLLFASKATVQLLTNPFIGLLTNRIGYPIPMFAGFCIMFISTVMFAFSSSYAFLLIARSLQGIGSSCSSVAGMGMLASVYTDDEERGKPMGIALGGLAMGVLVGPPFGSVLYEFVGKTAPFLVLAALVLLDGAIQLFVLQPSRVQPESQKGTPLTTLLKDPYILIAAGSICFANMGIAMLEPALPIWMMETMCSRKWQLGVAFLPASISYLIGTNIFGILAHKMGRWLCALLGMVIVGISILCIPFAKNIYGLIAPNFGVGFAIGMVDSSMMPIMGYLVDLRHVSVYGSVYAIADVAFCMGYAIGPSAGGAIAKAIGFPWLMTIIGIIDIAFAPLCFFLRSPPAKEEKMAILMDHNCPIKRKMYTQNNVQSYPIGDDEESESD
Experimental: Tissue homogenates of striatum (dissected from rat brain) were prepared in 50 mM of HEPES, pH 7.5, and 0.3 M of sucrose. Compounds were examined for their ability to compete for the binding of ^18F-AV-133 or ^18F-AV-133-D6 (^18F-Ia) (0.15-0.2 nM) at concentrations ranging from 10^−7 to 10^−12 M. The binding assays were performed in glass tubes (12×75 mm) in a final volume of 0.25 mL. […] After incubation for 90 min at room temperature, the bound ligand was separated from the free ligand by filtration through glass fiber filters. The filters were washed three times with 4 mL of ice-cold PBS buffer, pH 7.4 and the radioactivity on the filters was counted with a gamma counter (WIZARD^2, Perkin-Elmer).

Structure (SMILES): CNc1ccc(/C=C/c2ccc(OCCOCCOCCF)nc2)cc1 [^18F-AV-45]
initial brain uptake relative to metabolite ^18F-AV-160 ([1]; mice, initial uptake): 1.5 fold
Biodistribution Blood ([1]; 2 min): 2.51 ± 0.31 % Dose/g
Biodistribution Bone ([1]; 2 min): 1.33 ± 0.24 % Dose/g
Biodistribution Brain ([1]; 2 min): 7.33 ± 1.54 % Dose/g
Biodistribution Liver ([1]; 2 min): 16.3 ± 5.38 % Dose/g
Biodistribution Muscle ([1]; 2 min): 3.49 ± 0.33 % Dose/g
Biodistribution Blood ([1]; 60 min): 2.37 ± 0.27 % Dose/g
Biodistribution Bone ([1]; 60 min): 3.66 ± 0.30 % Dose/g
Biodistribution Brain ([1]; 60 min): 1.88 ± 0.14 % Dose/g
Biodistribution Liver ([1]; 60 min): 11.1 ± 1.83 % Dose/g
Biodistribution Muscle ([1]; 60 min): 1.33 ± 0.08 % Dose/g
Biodistribution Blood ([1]; 120 min): 1.96 ± 0.23 % Dose/g
Biodistribution Bone ([1]; 120 min): 6.48 ± 0.34 % Dose/g
Biodistribution Brain ([1]; 120 min): 1.80 ± 0.20 % Dose/g
Biodistribution Liver ([1]; 120 min): 8.96 ± 0.28 % Dose/g
Biodistribution Muscle ([1]; 120 min): 1.02 ± 0.07 % Dose/g
Biodistribution Blood ([1]; 180 min): 1.39 ± 0.13 % Dose/g
Biodistribution Bone ([1]; 180 min): 7.83 ± 1.08 % Dose/g
Biodistribution Brain ([1]; 180 min): 1.48 ± 0.15 % Dose/g
Biodistribution Liver ([1]; 180 min): 5.39 ± 0.31 % Dose/g
Biodistribution Muscle ([1]; 180 min): 0.78 ± 0.09 % Dose/g
decrease of plasma radioactivity ([2]; within 10 min of the injection): approximately 80%
decrease of plasma radioactivity ([2]; within 20 min of the injection): approximately 90%
parent remained in the plasma ([3]; mice, 30 min after intravenous injection): 30%
biologic T1/2 in mouse plasma ([3]; mouse plasma, estimated): less than 30 min

Structure (SMILES): Nc1ccc(C=Cc2ccc(OCCOCCOCCF)nc2)cc1 [AV-160]
reduction of binding affinity vs nonradioactive AV-45 [4]: ≥ 20 fold
Ki [4]: 54 ± 5 nM

Ki ([5]; hot ligand ^18F-AV-45-D3): 4.15 ± 0.75 nM
Ki ([5]; hot ligand ^18F-AV-45): 3.35 ± 0.88 nM
Structure (SMILES): [2H]C([2H])([2H])Nc1ccc(/C=C/c2ccc(OCCOCCOCCF)cc2)cc1 [AV-1-D3, IIa2]

Structure (SMILES): Nc1ccc(/C=C/c2ccc(OCCOCCOCC[18F])nc2)cc1 [^18F-AV-160]
brain uptake ([1]; mice, 2 min after injection): 4.5 % ID/g
brain uptake ([1]; mice, 60 min): 1.8 % ID/g
share of the plasma metabolites ([3]; mice, 30 min after injection): about 48%

Ki ([6]; hot ligand ^18F-AV-133-D6): 0.33 ± 0.06 nM
Ki ([6]; hot ligand ^18F-AV-133): 0.32 ± 0.07 nM
Kd [6]: 0.11 nM
Structure (SMILES): [2H]C([2H])(F)C([2H])([2H])C([2H])([2H])Oc1cc2c(cc1OC)[C@H]1C[C@@H](O)[C@H](CC(C)C)CN1CC2 [Ia (AV-133-D6), (2R,3R,11R)-9-(3-Fluoropropoxy-[1,1,2,2,3,3-D6])-3-isobutyl-10-methoxy-2,3,4,6,7,11b-hexahydro-1H-pyrido[2,1-a]isoquinolin-2-ol]

Ki ([6]; hot ligand ^18F-AV-133-D6): 0.26 ± 0.03 nM
Ki ([6]; hot ligand ^18F-AV-133): 0.33 ± 0.02 nM
Kd [6]: 0.11 nM
Structure (SMILES): COc1cc2c(cc1OCCCF)CCN1C[C@@H](CC(C)C)[C@H](O)C[C@H]21 [AV-133, reference compound]

Ki ([5]; hot ligand ^18F-AV-45-D3): 3.25 ± 0.82 nM
Ki ([5]; hot ligand ^18F-AV-45): 3.44 ± 1.22 nM
Kd [5]: 3.51 nM
Structure (SMILES): [2H]C([2H])([2H])Nc1ccc(/C=C/c2ccc(OCCOCCOCCF)nc2)cc1 [AV-45-D3, IIa1]

Ki ([5]; hot ligand ^18F-AV-45-D3): 3.24 ± 0.76 nM
Ki ([5]; hot ligand ^18F-AV-45): 4.02 ± 0.22 nM
Kd [5]: 3.51 nM
Structure (SMILES): CNc1ccc(/C=C/c2ccc(OCCOCCOCCF)nc2)cc1 [AV-45, reference compound]
Ki [4]: 2.87 ± 0.17 nM
